In patent US20160324884A1, “TREATMENT OF DIABETES WITH PENTACYCLIC TRITERPENOID SAPONIN COMPOUNDS FROM SZECHUAN MELANDIUM ROOT” (priority 2013, published 2016):

How the values were obtained:
Assay type in all cases: in vivo
[1] = test system: KK^Ay mice; test: Glycemia in KK^Ay mice during treatment and after withdrawal (Example 3)
Excerpt: (§1) 60 male KK^Ay mice (12 weeks of age, License NO. SCXK (BJ) 2009-0015, Beijing Huafukang Biology Technology Co. Ltd.) and 10 normal male C57BL/6 mice (12 weeks of age, License NO. SCXK (BJ) 2009-0015, Beijing Huafukang Biology Technology Co. Ltd.) were adaptively bred for one week, and then used in the following experiment.
(§2) 60 KK^Ay mice were adaptively bred for 1 week, and then randomly assigned into 6 groups: Model group, Compound (1) group, Compound (2) group, Compound (3) group, Compound (4) group, and metformin group, 10 mice per group. 10 normal C57BL/6 mice were used for the control group. KK^Ay mice were in a high-fat diet, and the control normal mice were in a normal control diet. The control and model groups were hypodermically injected with sterile water, the 6 medicated groups mice were subcutaneously injected with […] Wacao saponins, (Compounds (1), (2), (3) and (4)) respectively, and the positive group was administered metformin by gavage. All mice were administrated at 9 am for 2 weeks and the administration volume is 10 ml/kg BW.
(§3) Compound (1), (2), (3) and (4) were respectively dissolved into sterile water, and sterilized with filtration for Sc. to the medication groups. The metformin was dissolved into sterile water for lg. to the positive control group. Control and model groups animals were injected with sterile water (10 ml/kg BW), Sc. All the animals were treated daily at 9 am for 2 weeks (14 days).
Blood detection: Blood glucose was measured weekly. Overnight fasting glycemia level was measured with One Touch ULTRA Glucometer for the tail blood test. At the end of the experiment, blood serum was collected for measuring levels of fasting blood glucose and insulin, and the insulin sensitivity index (ISI) was calculated. At the same time, hepatic tissues and skeletal muscles of mice were taken out to determine levels of hepatic and muscle glycogen by detection kits.
Termination of the experiment After administrating mice for 2 weeks (14 days), the experiment was terminated.
This experiment is to observe the anti-hyperglycemia effects of Wacao saponins on KK^Ay mice during and after the period of drug treatment, respectively.

[2] = test system: normal ICR mice; test: Glycemia in normal ICR mice (Example 4); conditions: 2.0 mg/kg Sc, vs control group
Excerpt: 40 male ICR mice (20-22g, License NO. SCXK (BJ) 2011-0004, Beijing SPF Experimental Animal Technology Co. Ltd.) were adaptively bred for one week, and then used in the following experiment.
Animals were housed individually in wood-chip-bedded plastic cages and fed the standard laboratory chow. All the animals had ad libitum access to food and water.
40 ICR mice were adaptively bred for 1 week, and then randomly assigned into 4 groups: Model, Compound (1), Compound (2) and metformin group, 10 mice per group. All the animals were fed with normal food. Mice in the control group were hypodermically injected with sterile water. The treated groups were subcutaneously injected with Compounds (1) and (2), respectively. And the positive group was administrated metformin by gavage. All the animals were administrated at 9 am for 2 weeks, and the dose volume is 10 ml/kg BW.
Compound (1) and (2) were respectively dissolved into sterile water, and sterilized with filtration for Sc. The metformin was dissolved into sterile water for lg. to the positive control group. Mice in the control group were injected with sterile water (10 ml/kg BW), Sc. All the animals were treated at 9 am for 2 weeks (14 days).
Blood detection: Blood glucose was measured weekly. Overnight fasting glycemia was measured by One Touch ULTRA Glucometer (LifeScan Johnson and Johnson, USA) for the tail blood test.
End of the experiment: After mice being administrated for 2 weeks (14 days), the experiment was terminated.

[3] = test system: KK^Ay mice; test: Body weight, food and water intake in KK^Ay mice (Example 3); conditions: vs model group
Excerpt: as §1
The animals were housed individually in wood-chip-bedded plastic cages. Germ-free and high-fat diets (Beijing Huafukang Biology Technology Co. Ltd.) were used to feed the KK^Ay mice. All the animals had free access to food and water.
as §2
The body weight, food and water intake of each mouse was measured and recorded weekly throughout the course of the experiment. At the end of the experiment, collected the blood and separated serum, fasting blood glucose, insulin levels and insulin sensitivity index (ISI) were measured or calculated in each group. Liver, skeletal muscles of mice in each group were taken and weighed for detecting glycogen levels of the hepatic and muscles after mice being killed.
as §3
Measurement of food and water intake: 24 hours' food and water intake were measured by gravimetry once a week. It should be paid attention to recycling leakage of small forage into the feed box to ensure the accuracy of food intake.
Determination of body weight: The body weight of mice was measured and recorded once a week.
Results are shown as means±SD. Statistical analysis data were analyzed by using SPSS 10.0 software. Data were evaluated with analysis of variance.

Q: With `CC(=O)OC1C(OC(=O)/C=C/c2ccc(C)cc2)C(C)OC(OC(=O)[C@]23CCC(C)(C)C[C@H]2C2C=C[C@@H]4[C@@]5(C)CC[C@H](OC6OC(C(=O)O)C(O)C(OC7OCC(O)C(O)C7O)C6OC6OC(CO)C(O)C(O)C6O)[C@@](C)(C=O)[C@@H]5CC[C@@]4(C)[C@]2(C)C[C@H]3O)C1OC1OC(C)C(O)C(O)C1O` (stereo partly shown) [Compound (1), sinocrassuloside VI] as the compound, how does the overall anti-diabetic effects ([1]; KK^Ay mice, 2.0 mg/kg Sc, 2 weeks, comparison among compounds) read?
A: Its overall anti-diabetic effects is “best anti-diabetic effects”.

Q: What about the “duration of hypoglycemic effect compared with metformin” value ([1]; KK^Ay mice, after stopping medication) of the same compound?
A: The value was “lasts longer than that of metformin”.

Q: What about the “descending rates of blood glucose” value ([1]; T2DM mice, 2 mg/kg, two weeks after subcutaneous injection) of the same compound?
A: The value was 70%.

Q: And the glycemia level ([2]; after 1 week)?
A: The glycemia level was “no significant difference was found except the Compound (1) group (p<0.05, vs. control group)”.

Q: And the glycemia level ([2]; after 2 weeks)?
A: Its glycemia level is “decreased much obviously”.

Q: What about the body weight growth ([3]; 2.0 mg/kg BW Sc, 2 weeks) of the same compound?
A: Its body weight growth is “best effect of resistance on body weight growth”.

Q: And the food intake ([3]; after 1 week, compounds 2.0 mg/kg Sc, metformin 500 mg/kg lg)?
A: Its food intake is “decreased obviously”.
